“Also recorded” adds a separate entry of the source.
Tests used:
HCMEC/D3 cells [1] = assay: Real-time PCR for CDH5 in HCMEC/D3 cells; assay type: cell-based, human; settings: 1 μM BIA, up to 48 hours
Experimental: (§1) Real-time PCR: Total RNA from GBM and HCMEC/D3 cells was obtained and processed as indicated above. For cDNA generation, we used 1 μg of RNA and processed with the iScript™ cDNA synthesis kit (BioRad), following the protocol indicated by the provider. All primers were designed using NCBI Primer-Blast tool. Detailed information on primer sequences can be found in FIG. 25 (Supplementary Table 3). Gene expression levels were quantified using PowerUp SYBR Green Master Mix (Applied Biosciences) on QuantStudio 6 Pro System (Applied Biosciences), normalized by housekeeping gene GAPDH expression and represented as relative expression using comparative ΔΔCT method.

HBMEC cells [2] = assay: Real-time PCR for CDH5 in HBMEC cells; assay type: cell-based, human; settings: 1 μM BIA, up to 48 hours
G34 GBM cells = assay: Real-time PCR in G34-PCDH neurosphere GBM cells; assay type: cell-based, human; settings: BIA 2 μM, 24 hours
Experimental: as §1

HBMEC cells [3] = assay: Trans-endothelial electrical resistance (TEER) of HBMEC monolayers; assay type: cell-based, human
Experimental: Trans-endothelial electrical resistance: HCMEC/D3 or HBMEC cells were plated in 8W10E+ PET 8-well arrays (Applied Biophysics) at a density of 100,000 cells/well in 500 μl. These arrays were placed in a pre-stabilized ECIS Z-Theta instrument (Applied Biophysics). Using the ECIS Z-Theta software (Applied Biophysics), measurements were set to 4000 and 64000 Hz every 30 minutes. […] Cells would then be treated with BIA and left to grow up to 5 days, with frequent drug-containing media re-addition for maintenance of the culture. Resistance (W) and capacitance (nF) were recorded and plotted.

BBB spheroids = BBB spheroids staining and dextran permeability assay; assay type: cell-based, human; settings: BIA 72 hours
Experimental: BBB spheroids and dextran permeability assay: BBB spheroids were grown and cultured with a FITC-conjugated (70 kDa) fluorescent dextran (Millipore Sigma) as previously reported.^51,86,87 BBB spheroids were grown for 48 hours and then treated with BIA at increasing doses for 72 hours. Then, spheroids were collected and stained as indicated above for CDH5 and F-actin (Phalloidin). In the case of fluorescent dextran incubation, BBB spheroids were collected in 1.5 mL microtubes (Eppendorf) and incubated for 3 hours at 37 degrees Celsius. Pictures were taken by confocal microscopy. For dextran permeability measurement, 21 images using Z-stack layers of 5 μm intervals for achieving a total depth of 100 μm within the sphere. Fluorescent-dextran intensity from maximal intensity projection was quantified using Image J (National Institute of Health).

HCMEC/D3 cells [4] = assay: Flow cytometry of late apoptosis by Sytox Blue staining; assay type: cell-based, human; settings: any of the used BIA doses, 72 hours, vs cisplatin control
Experimental: For apoptosis assessment, […]3 cells were treated as indicated above for 72 hours with BIA at indicated doses. Cells were collected from the 6-well plates and washed three times with PBS. Then, incubated with SYTOXTM Blue nucleic acid stain (5 mM) with a dilution of 1:1000 for 15 minutes. Cells were submitted and analyzed in the CytoFLEX system and its software as indicated above.

HCMEC/D3 cells [5] = assay: Visual assessment (brightfield) of HCMEC/D3 cells; assay type: cell-based, human; settings: BIA 72 hours; elongated phenotype with long filipodia
HCMEC/D3 cells [6] = assay: Human phospho-kinase array of HCMEC/D3 cells; assay type: cell-based
Experimental: Phospho-kinase array: HCMEC/D3 cells were plated at a density of 1 million cells and treated with either 1 μM BIA or vehicle DMSO for 24 hr. Cell lysates were collected with manufacturer provided Lysis Buffer 6 supplemented with 10 μg/mL Aprotinin (Tocris), 10 μg/mL Leupeptin hemisulfate (Tocris) and 10 μg/mL Pepstatin A (Tocris) for protein preservation. 50 μg of lysate from each sample were loaded into each membrane. All experiment procedures were performed using the Proteome Profiler Human Phospho-Kinase Array Kit (R&D Systems) following manufacturer's protocol.

[7] = tested on: G9-PCDH and G34-PCDH cells; assay: Platinum levels in GBM cells treated with BIA and cisplatin; assay type: cell-based, human; settings: 2 μM BIA and cisplatin simultaneously
[8] = Hydrophobicity / dissolution in physiological solutions; assay type: physicochemical; settings: difficult to dissolve in physiological solutions
G30 tumors = assay: DCE-MRI analysis of blood flow within a murine glioblastoma (k-trans); assay type: in vivo, mouse; settings: 24 hours after BiA 10 mg/kg IP vs pretreatment
Experimental: Magnetic Resonance Imaging (MRI): MRI was performed at the BWH Imaging Core on a 7T Bruker MRI apparatus. G30 tumors were implanted (50,000 cells per mouse) intracranially into the striatum using a stereotactic frame. After three weeks of tumor growth, MRI images were collected according to BWH Imaging Core protocols using Gadolinium contrast enhancement. After the first image was collected, BiA was administered IP at 10 mg/kg), and imaging were performed again.
The present study investigated whether the indirubin derivative, BiA (see FIG. 1A and FIG. 1B), can disrupt the permeability of the BTB. Blood flow within a murine glioblastoma was assessed using dynamic contrast-enhanced magnetic resonance imaging (DCE-MRI) analysis and as measured by k^trans.
K^trans is calculated by measuring the accumulation of gadolinium-based contrast agent in the extravascular-extracellular space. Interpretation of k^trans varied according to permeability and blood flow. In situations where permeability is very low (near-intact blood brain barrier), then k^trans is a useful measure of permeability, whereas in situations where permeability is very high (disrupted blood brain barrier), then k^trans will reflect perfusion.

[9] = tested on: human brain microvascular endothelial cell monolayers; assay: RNA sequencing of HBMEC monolayers (Example 3); assay type: cell-based; settings: BiA 1 μM, 24 hours
Experimental: RNA Sequencing (RNAseq): RNA sequencing was performed by the Dana Faber molecular biology core according to their standard methods. RNA was prepared from human brain microvascular endothelial cell monolayers after 24 hours treatment with BiA. EXAMPLE 1 EFFECT OF INDIRUBIN ON THE BLOOD-TUMOR BARRIER (BTB)
In order to assess changes in gene expression profiles induced by alterations to barrier functions induced by indirubin, RNA sequencing was performed RNA prepared from human brain microvascular endothelial cell monolayers after 24 hours treatment with BiA. HBMEC monolayers were treated with BiA (1 μM) for 24 hours and gene expression profiles compared with untreated controls.

murine GBM models = settings: cited from earlier work

CC(=O)ON=C1C(=C2C(=O)Nc3cc(Br)ccc32)Nc2ccccc21 [BIA, 6-bromoindirubin acetoxime]
CDH5 expression at the transcriptional level (HCMEC/D3 cells [1]): decreased expression | CDH5 expression at the transcriptional level (HBMEC cells [2]): decreased expression | CDH5 expression (G34 GBM cells): reduced the expression | WNT7B and S1PR3 expression (G34 GBM cells): diminishment | barrier establishment (TEER), BIA added 24 hours after plating (HBMEC cells [3]): prevented barrier establishment | CDH5 expression in BBB spheroids (IF) (BBB spheroids): decreased the expression of CDH5 in a dose-dependent manner | F-actin in BBB spheroids (Phalloidin) (BBB spheroids): reduced considerably | FITC-dextran (70 kDa) permeability of BBB spheroids (BBB spheroids; dextran 3 hours): dose-dependent increase in permeability | late apoptosis/necrosis (HCMEC/D3 cells [4]): did not show late apoptosis/necrosis | signs of apoptosis or necrosis by visual assessment (HCMEC/D3 cells [5]): did not show signs of apoptosis or necrosis | activity of endothelial nitric oxide synthase (eNOS) and the p38a/CREB axis (HCMEC/D3 cells [6]): decreased activity | phosphorylation of MAPK family (p38a, JNK1, MSK1/2, ERK1/2), SRC family (SRC, YES, FGR) and transcription factors (CREB, STAT1, STAT2, STAT5a/b, c-JUN) (HCMEC/D3 cells [6]; 1 μM BIA, 24 hours): decrease of activating phosphorylation | phosphorylation of STAT3 and p70 S6 kinase (HCMEC/D3 cells [6]; 1 μM BIA, 24 hours): phosphorylation of STAT3 at S727 and Y705 | cellular drug (platinum) accumulation due to BIA addition [7]: did not observe any advantage in drug accumulation | hydrophobicity [8]: highly hydrophobic | k-trans values in murine glioblastoma (G30 tumors): significantly increased; also recorded: increased perfusion | gene expression pathways (TGF-β, Wnt signaling, angiogenesis/BTB) [9]: alteration to major pathways | tumor migration and growth (previously reported) (murine GBM models; GBM in vitro and in vivo): halted tumor migration and growth in vitro and in vivo | angiogenesis of intra-cranial murine GBM models (previously reported) (murine GBM models; mouse, in vivo): reduced angiogenesis

From US20240358678A1, “METHODS AND COMPOSITIONS FOR ENHANCING CHEMOTHERAPEUTIC DRUG UPTAKE INTO BRAIN TUMORS” (Brown University, priority 2023, published 2024)
